One compound from patent US20210380547A1, “UREA DERIVATIVES FOR TREATING AND/OR PREVENTING CANCER” (CENTRE NATIONAL DE LA RECHERCHE SCIENTIFIQUE, priority 2018, published 2021) can be followed below.

The test system of data set [1] is VEGFA-dependent HuVEC migration. As to the kind of experiment: Boyden chamber migration assay, VEGFA-dependent. Type of data set: cell-based. As to conditions: VEGFA (50 ng/ml), same concentration. On the procedure:
CXCL7 or VEGFA-stimulated chemotaxis assays were monitored using modified Boyden chambers containing polycarbonate membranes (8-μm pores, Transwell; Corning, Sigma). Cells were seeded on the upper side of the filters and chambers were placed on 24-well plates containing CXCL7 (50 ng/ml) or VEGFA (50 ng/ml). Cells were allowed to migrate for 24 hr at 37° C. in 5% CO2. Migratory cells on the lower membrane surface were fixed in 3% paraformaldehyde, stained with 0.1% crystal violet.

Data set [2] deals with 786-O and 786-R cells. The data set is described as follows: FACS analysis of death markers, sunitinib-sensitive and -resistant cells. Type of data set: cell-based, human. As to conditions: 2.5 μM, 48 h, 786 and 786-R. On the procedure: C: 786 and 786-R cells were treated with 2.5 μM compound #1 for 48 h. Cells were stained with the PI/annexin-V-fluo staining kit according to the manufacturer's indications. Histograms show both annexin-V^+/PI^− cells (blue bars) and annexin-V^+/PI^+ cells (red bars);
Apoptosis analysis: After stimulation, cells were washed with ice-cold PBS and were stained with the annexin-V-fluos staining kit (Roche, Meylan, France) according to the manufacturer's procedure. Fluorescence was measured by using the FL2 (AV) and FL3 (propidium iodide, PI) channels of a fluorescence-activated cell sorter apparatus (Calibur cytometer).
Background: In flow cytometry, cells or beads pass a laser one at a time.

For data set [3], the system named is DAOY and HD-MB03 cells. As to the kind of experiment: Clonogenicity, medulloblastoma cells. As to conditions: 1 μM, Day+7 (DAOY), Day+11 (HD-MB03). It counts as cell-based. The procedure: FIG. 8: Inhibition of proliferation of medulloblastoma cells by compound #1. Clonogenicity tests; […].
150 DAOY cells and 300 HD-MB03 cells were seeded in a 6-well plate with or without treatment (1 μM of compound #1 or DMSO as control “CONT”). At Day+7 (DAOY) and Day+11 (HD-MB03), cells were mixed with absolute ethanol for 20 minutes, washed with PBS and colored with Giemsa 50% for 30 minutes. After washing, the boxes were scanned and the number of clones was quantified using ImageJ® software. Each assay was performed in duplicate.

In data set [4] the test system is 786R. As to the kind of experiment: XTT cell viability assay, 786R (sunitinib-resistant). It counts as cell-based, human. The conditions noted are these: for EC50: XTT assay (48 h), sunitinib-resistant, standard deviation of 10%, read-out: EC50 (μM) Kidney 786R. On the procedure:
A, B: Naive (786-O, A), and sunitinib-resistant (786-R, B) 786-O cells, were treated with compound #1 or sunitinib (1 to 10 μM) for 48 hr. Cell viability was measured by XTT assays;
D, E: 786-O (D), 786-R (E), were treated with 2.5 μM compound #1 or 2.5 μM sunitinib for 24 h to 96 h. The cells metabolism was measured by XTT assay;
(§1) Fifty microliters of sodium 3′-[1-phenylaminocarbonyl)-3,4-tetrazolium]-bis(4-methoxy-6-nitro) benzene sulfonic acid hydrate (XTT) reagent was added to each well. The assay is based on the cleavage of the yellow tetrazolium salt XTT to form an orange formazan dye by metabolically active cells. The absorbance of the formazan product, reflecting cell viability, was measured at 490 nm. Each assay was performed in quadruplicate.
(§2) Compounds #1-#14 have been assayed as potential anti-proliferative agents against a panel of human breast head and neck, and kidney tumor cells and hematological malignancies, selected on the basis of their aggressiveness (e.g. incurable triple-negative breast cancer cells: MDA-MB-231; kidney ccRCC cells: RCC4, A498 and 786-O and 786R; head and neck cancer cells: CAL33, CAL33RR, CAL27, and CAL27RR; acute myeloid cell lines: OCI-AML2, OCI-AML3, MolM13, and MolM14; myelodysplastic cell line: SM1; and chronic myeloid cell line: CML). All these cell lines share as common denominator the expression of CXCR1 and CXCR2. The EC50 values have been measured by a XTT colorimetric assay, and compared to those of SB-225002, used as a reference; the results are listed in Table 1.

The subject of data set [5] is caspase-3 activity. The data set is described as follows: Caspase-3 activity assay. It counts as cell-based, human. As to conditions: 2.5 μM, 48 hr, 786-O and 786-R. On the procedure: F: Cells were treated with 2.5 and 5 μM compound #1, with 2.5 μM sunitinib for 48 hr. Cells were lysed in caspase buffer and caspase-3 activity was evaluated using 0.2 mM Ac-DEVD-AMC as substrates. Results expressed as arbitrary units (A.U.) and are means±Standard deviation of 3 independent experiments;
Caspase 3 activity was assessed in quadruplicates using z-DEVD-AMC as substrate and fluorescence were assessed.

For data set [6], the target named is T1, CXCR2 (Homo sapiens, UniProt P25025).
T1 construct: endogenous in cells; host or cells: HuVEC (healthy endothelial cells)
As to the kind of experiment: CXCR2 membrane level by flow cytometry after CXCL8 stimulation in HuVEC. It counts as cell-based. As to conditions: 2.5 μM, CXCL8 25 ng/ml 1 h. On the procedure:
A: HuVEC were stimulated with 25 ng/ml CXCL8 during 1 h. Membrane-associated CXCR2 protein levels were quantified by flow cytometry;
CXCR2 measurement: After stimulation, cells were washed with PBS and were stained with the CXCR2-PE antibody (Miltenyi) for 30 min at room temperature. Fluorescence was measured by using the FL2 (PE) channels of a fluorescence-activated cell sorter apparatus (Calibur cytometer).
Since CXCR2 is internalized in endothelial cells when activated by CXCL-8, the effect of compound #1 has been investigated on CXCR2 recycling on HuVEC cells.

For data set [7], the system named is OCI-AML3. The data set is described as follows: XTT cell viability assay, OCI-AML3. It counts as cell-based, human. The conditions noted are these: Homo sapiens, OCI-AML-3; XTT assay (48 h); standard deviation of 10%. On the procedure:
as §1, §2
For orientation: Tetrazolium assays rely on reduction of a dye to a coloured formazan, in cell work by metabolically active cells.

The test system of data set [8] is primary RCC cells (TF and CC). As to the kind of experiment: XTT cell viability and colony assay, primary RCC cells. It counts as cell-based. The conditions noted are these: Homo sapiens, XTT 48 h, read-out: EC50 proliferation of primary kidney tumor cells. The procedure: A: Primary RCC cells (TF and CC) and normal renal cells (15S) were treated with compound #1 (1 to 5 μM) for 48 h. Cell viability was measured by XTT assays;
B: Primary RCC cells (TF and CC) were treated with compound #1 (1 or 2.5 μM) and colored with Giemsa blue after 10 days (representative results of an experiment repeated trice);
as §1
The biological effects of compound #1 on primary RCC tumors cells and normal renal cells harvested from patients suffering from kidney cancer have been explored (FIG. 4).

Data set [9] relates to K562. As to the kind of experiment: XTT cell viability assay, K562. It counts as cell-based, human. As to conditions: Homo sapiens, K562; XTT assay (48 h); standard deviation of 10%; read-out: EC50 (μM) CML K562. On the procedure: as §1, §2
Data set [10] is described as follows: Stability in cellulo by UPLC/HRMS on 786-O cell line. It counts as in vitro ADME. The conditions noted are these: 24h treatment at room temperature. The source says: The stability of compound #1 was first assayed through UPLC/HRMS analyses in cellulo on the 786-O cell line.

Read-outs that look alike come from different tables or passages of the source.

T1 sequence (P25025 whole entry): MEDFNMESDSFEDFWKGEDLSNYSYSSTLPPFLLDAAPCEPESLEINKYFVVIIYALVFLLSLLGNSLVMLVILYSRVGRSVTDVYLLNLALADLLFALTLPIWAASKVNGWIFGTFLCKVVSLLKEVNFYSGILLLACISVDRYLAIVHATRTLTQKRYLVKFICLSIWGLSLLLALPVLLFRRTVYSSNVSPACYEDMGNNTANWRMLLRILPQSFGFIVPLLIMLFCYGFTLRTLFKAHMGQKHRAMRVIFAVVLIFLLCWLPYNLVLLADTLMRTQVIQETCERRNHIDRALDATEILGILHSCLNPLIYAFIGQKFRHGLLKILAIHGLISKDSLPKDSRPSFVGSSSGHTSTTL

As to `O=C(Nc1cccc(Cl)c1)Nc1nc2ccc([N+](=O)[O-])cc2s1` [Compound #1, 1-(3-chlorophenyl)-3-(6-nitrobenzo[d]thiazol-2-yl)urea], the “activity on VEGFA-stimulated HuVEC motility” value in [1] is “does not exert any visible activity”. The “death markers (annexin-V/PI) in sensitive and resistant cells” value in data set [2] was “kills in a similar way sensitive and resistant”. The “formation of DAOY and HD-MB03 clones” value in data set [3] was “significatively reduces the formation”. Moreover, the “time of treatment to total inhibition of proliferation” value in data set [4] (786-R cells, 2.5 μM, XTT 24 h to 96 h) was ~100 h. The EC50 is 2 µM in [4] (Homo sapiens, 48 h); 2.5 µM in data set [4]; 4 µM in [7]; ~2 µM in [8]; 2 µM in data set [9]. In data set [5], the caspase-3 activity entry is recorded as “significantly strengthened”. In addition, the “CXCL-8-dependent internalization of CXCR2” value in data set [6] is recorded as “prevents the CXCL-8-dependent internalization of CXCR2”. The “degradation (stability in cellulo)” value in data set [10] is “No degradation”.
